According to BindingDB's records for doi:10.1021/jm960124f (1996):

Biological target: Aldo-keto reductase family 1 member A1 (Bos taurus)
Assay: Evaluated for inhibition of Aldehyde reductase 1

IC50 [µM] | SMILES
161 | O=C(O)Cn1nc2c(c(C(=O)O)c1=O)CCc1ccccc1-2 [2-Carboxymethyl-3-oxo-2,3,5,6-tetrahydro-benzo[h]cinnoline-4-carboxylic acid]
107 | O=C(O)Cn1nc2c(cc1=O)Cc1ccccc1-2 [(3-Oxo-3,5-dihydro-indeno[1,2-c]pyridazin-2-yl)-acetic acid]
156 | O=C(O)Cn1nc2c(cc1=O)CCc1ccccc1-2 [(3-Oxo-5,6-dihydro-3H-benzo[h]cinnolin-2-yl)-acetic acid]
92.6 | O=C(O)CCCn1nc2c(cc1=O)CCc1ccccc1-2 [4-(3-Oxo-5,6-dihydro-3H-benzo[h]cinnolin-2-yl)-butyric acid]

Further lines, the compound ahead of its results:

SMILES | IC50 [µM]
Cc1cc(C)c2c(c1)-c1nn(CCC(=O)O)c(=O)cc1CC2 [3-(7,9-Dimethyl-3-oxo-5,6-dihydro-3H-benzo[h]cinnolin-2-yl)-propionic acid] | 289
Cc1cc(C)c2c(c1)-c1nn(CC(=O)O)c(=O)cc1CC2 [(7,9-Dimethyl-3-oxo-5,6-dihydro-3H-benzo[h]cinnolin-2-yl)-acetic acid] | 295
O=C(O)Cn1nc2c(c(C(=O)O)c1=O)Cc1ccccc1-2 [2-Carboxymethyl-3-oxo-3,5-dihydro-2H-indeno[1,2-c]pyridazine-4-carboxylic acid] | 136
